# pIC50: −log10 of the molar value.
# System: 885512-296-R-J2-PDC complex spheroid viability
# Assay: Anticancer human tumor 885512-296-R-J2-PDC patient-derived breast carcinoma cell line growth inhibition
# Settings: for pIC50: curve of first compound; for viability, T/C: stronger effect = lower value
# Summary of the method: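 Multicellular complex spheroids of tumor cells with human endothelial cells (HUVEC) and mesenchymal stem cells; the LSD1 inhibitor iadademstat was combined with standard-of-care or investigational agents. Top concentration at or near clinical Cmax, half-log dilutions; final DMSO ≤0.25%.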
# [1] = second compound 0.1 µM, first compound 0.00949 µM
# [2] = second compound 0.1 µM, first compound 0.03 µM
# [3] = second compound 0.1 µM, first compound 0.0949 µM
# [4] = second compound 0.1 µM, first compound 0.3 µM
# [5] = second compound 0.1 µM, first compound 0.949 µM
# [6] = second compound 0.1 µM, first compound 3 µM
# [7] = second compound 0.316 µM, first compound 0.00949 µM
# [8] = second compound 0.316 µM, first compound 0.03 µM
# [9] = second compound 0.316 µM, first compound 0.0949 µM
# [10] = second compound 0.316 µM, first compound 0.3 µM
# [11] = second compound 0.316 µM, first compound 0.949 µM
# [12] = second compound 0.316 µM, first compound 3 µM
# [13] = second compound 1 µM, first compound 0.00949 µM
# [14] = second compound 1 µM, first compound 0.03 µM
# [15] = second compound 1 µM, first compound 0.0949 µM
# [16] = second compound 1 µM, first compound 0.3 µM
# [17] = second compound 1 µM, first compound 0.949 µM
# [18] = second compound 1 µM, first compound 3 µM
# [19] = second compound 3.16 µM, first compound 0.00949 µM
# [20] = second compound 3.16 µM, first compound 0.03 µM
# [21] = second compound 3.16 µM, first compound 0.0949 µM
# [22] = second compound 3.16 µM, first compound 0.3 µM
# [23] = second compound 3.16 µM, first compound 0.949 µM
# [24] = second compound 3.16 µM, first compound 3 µM
# [25] = second compound 10 µM, first compound 0.00949 µM
# [26] = second compound 10 µM, first compound 0.03 µM
# [27] = second compound 10 µM, first compound 0.0949 µM
# [28] = second compound 10 µM, first compound 0.3 µM
# [29] = second compound 10 µM, first compound 0.949 µM
# [30] = second compound 10 µM, first compound 3 µM
# 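Also: spheroids exposed to agents for 7 days before viability read.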
compound,measurement,setting,value
Cn1ncnc1C1c2n[nH]c(=O)c3cc(F)cc(c23)NC1c1ccc(F)cc1 (stereo not given) + NC1CCC(NC2CC2c2ccccc2)CC1,pIC50,second compound 0.1 µM,7.80
same,pIC50,second compound 0.316 µM,7.60
same,pIC50,second compound 1 µM,7.56
same,pIC50,second compound 3.16 µM,7.56
same,pIC50,second compound 10 µM,7.85
same,"viability, T/C","second compound 0.1 µM, first compound 0.000316 µM",140%
same,"viability, T/C","second compound 0.1 µM, first compound 0.001 µM",105%
same,"viability, T/C","second compound 0.1 µM, first compound 0.00316 µM",77.6%
same,"viability, T/C","second compound 0.1 µM, first compound 0.01 µM",67.2%
same,"viability, T/C","second compound 0.1 µM, first compound 0.0316 µM",37.7%
same,"viability, T/C","second compound 0.1 µM, first compound 0.1 µM",10.2%
same,"viability, T/C","second compound 0.316 µM, first compound 0.000316 µM",122%
same,"viability, T/C","second compound 0.316 µM, first compound 0.001 µM",113%
same,"viability, T/C","second compound 0.316 µM, first compound 0.00316 µM",81.6%
same,"viability, T/C","second compound 0.316 µM, first compound 0.01 µM",79%
same,"viability, T/C","second compound 0.316 µM, first compound 0.0316 µM",44%
same,"viability, T/C","second compound 0.316 µM, first compound 0.1 µM",13.3%
same,"viability, T/C","second compound 1 µM, first compound 0.000316 µM",108%
same,"viability, T/C","second compound 1 µM, first compound 0.001 µM",105%
same,"viability, T/C","second compound 1 µM, first compound 0.00316 µM",89.6%
same,"viability, T/C","second compound 1 µM, first compound 0.01 µM",76.7%
same,"viability, T/C","second compound 1 µM, first compound 0.0316 µM",44.6%
same,"viability, T/C","second compound 1 µM, first compound 0.1 µM",28.5%
same,"viability, T/C","second compound 3.16 µM, first compound 0.000316 µM",106%
same,"viability, T/C","second compound 3.16 µM, first compound 0.001 µM",104%
same,"viability, T/C","second compound 3.16 µM, first compound 0.00316 µM",86.1%
same,"viability, T/C","second compound 3.16 µM, first compound 0.01 µM",75.2%
same,"viability, T/C","second compound 3.16 µM, first compound 0.0316 µM",44.5%
same,"viability, T/C","second compound 3.16 µM, first compound 0.1 µM",28.6%
same,"viability, T/C","second compound 10 µM, first compound 0.000316 µM",92%
same,"viability, T/C","second compound 10 µM, first compound 0.001 µM",85%
same,"viability, T/C","second compound 10 µM, first compound 0.00316 µM",72%
same,"viability, T/C","second compound 10 µM, first compound 0.01 µM",56.8%
same,"viability, T/C","second compound 10 µM, first compound 0.0316 µM",36%
same,"viability, T/C","second compound 10 µM, first compound 0.1 µM",18.6%
NS(=O)(=O)OCC1CC(n2ccc3c(NC4CCc5ccccc54)ncnc32)CC1O (stereo not given) + NC1CCC(NC2CC2c2ccccc2)CC1,pIC50,second compound 0.1 µM,> 8.02
same,pIC50,second compound 0.316 µM,> 8.02
same,pIC50,second compound 1 µM,> 8.02
same,pIC50,second compound 3.16 µM,> 8.02
same,pIC50,second compound 10 µM,> 8.02
same,"viability, T/C",[1],16.7%
same,"viability, T/C",[2],7.98%
same,"viability, T/C",[3],5.83%
same,"viability, T/C",[4],2.1%
same,"viability, T/C",[5],8.58%
same,"viability, T/C",[6],9.25%
same,"viability, T/C",[7],12.9%
same,"viability, T/C",[8],8.7%
same,"viability, T/C",[9],7.27%
same,"viability, T/C",[10],5.01%
same,"viability, T/C",[11],6.94%
same,"viability, T/C",[12],6.92%
same,"viability, T/C",[13],16.3%
same,"viability, T/C",[14],8.77%
same,"viability, T/C",[15],4.53%
same,"viability, T/C",[16],4.31%
same,"viability, T/C",[17],1.23%
same,"viability, T/C",[18],6.71%
same,"viability, T/C",[19],14.2%
same,"viability, T/C",[20],8.91%
same,"viability, T/C",[21],3.64%
same,"viability, T/C",[22],1.52%
same,"viability, T/C",[23],4.11%
same,"viability, T/C",[24],3.57%
same,"viability, T/C",[25],10.2%
same,"viability, T/C",[26],5.83%
same,"viability, T/C",[27],2.78%
same,"viability, T/C",[28],1.64%
same,"viability, T/C",[29],1.08%
same,"viability, T/C",[30],0.82%
O=C(C=Cc1cccc(S(=O)(=O)Nc2ccccc2)c1)NO + NC1CCC(NC2CC2c2ccccc2)CC1,pIC50,second compound 0.1 µM,7.13
same,pIC50,second compound 0.316 µM,7.07
same,pIC50,second compound 1 µM,7.07
same,pIC50,second compound 3.16 µM,7.15
same,pIC50,second compound 10 µM,7.30
same,"viability, T/C",[1],104%
same,"viability, T/C",[2],80.2%
same,"viability, T/C",[3],42.8%
same,"viability, T/C",[4],19.8%
same,"viability, T/C",[5],13.6%
same,"viability, T/C",[6],17.1%
same,"viability, T/C",[7],112%
same,"viability, T/C",[8],87.6%
same,"viability, T/C",[9],45.6%
same,"viability, T/C",[10],22.4%
same,"viability, T/C",[11],15.7%
same,"viability, T/C",[12],14.6%
same,"viability, T/C",[13],108%
same,"viability, T/C",[14],84.4%
same,"viability, T/C",[15],47.1%
same,"viability, T/C",[16],19.9%
same,"viability, T/C",[17],12.3%
same,"viability, T/C",[18],11.9%
same,"viability, T/C",[19],90.2%
same,"viability, T/C",[20],69.2%
same,"viability, T/C",[21],43.8%
same,"viability, T/C",[22],24.1%
same,"viability, T/C",[23],12.7%
same,"viability, T/C",[24],12.7%
same,"viability, T/C",[25],90.8%
same,"viability, T/C",[26],65.5%
same,"viability, T/C",[27],30.6%
same,"viability, T/C",[28],17.3%
same,"viability, T/C",[29],8.4%
same,"viability, T/C",[30],16.5%
